The source of these data is publication PMC6271395, “Synthesis and Biological Activities of Some New (N^α-Dinicotinoyl)-bis-L-Leucyl Linear and Macrocyclic Peptides” (Molecules, 2014).

Assay [1] deals with Bacillus subtilis. Description: Agar diffusion antimicrobial test, Bacillus subtilis. The assay is classed as cell-based. The following applies: Gram+ve, modified Kirby–Bauer disk diffusion, 10 µg/mL. The procedure: (§1) The newly synthesized compounds 3–12 were tested for their preliminary antimicrobial activity against different microorganisms representing Gram-positive (Bacillus subtilis, Bacillus aureus and Staphylococcus aureus), Gram-negative bacteria (Escherichia coli), yeast (Candida albican) and fungi (Aspergillus niger).
(§2) The antimicrobial activities of the synthesized compounds were determined by the agar diffusion method as recommended by the national committee for clinical laboratory standards (NCCLS). The concentrations of the tested compounds (10 µg/mL) were used according to modified Kirby–Bauer’s disk diffusion method. The degree of inhibition is measured in comparison with that of chloramphinicol and fusidic acid taken as standards.

Assay [2] deals with Bacillus aureus. The assay is described as follows: Agar diffusion antimicrobial test, Bacillus aureus. The following applies: Gram+ve, modified Kirby–Bauer disk diffusion, 10 µg/mL. The assay is classed as cell-based. The procedure: as §1, §2
Assay [3] relates to Staphylococcus aureus. The assay is described as follows: Agar diffusion antimicrobial test, Staphylococcus aureus. The settings on record: Gram+ve, modified Kirby–Bauer disk diffusion, 10 µg/mL. Format: cell-based. The procedure: as §1, §2
Assay [4] deals with Escherichia coli. Description: Agar diffusion antimicrobial test, Escherichia coli. The following applies: Gram−ve, modified Kirby–Bauer disk diffusion, 10 µg/mL. Format: cell-based. The procedure:
as §1, §2

The test system of assay [5] is Candida albicans. Description: Agar diffusion antimicrobial test, Candida albicans. The assay is classed as cell-based. The following applies: Yeast, modified Kirby–Bauer disk diffusion, 10 µg/mL. The procedure:
as §1, §2
A general note: A growth-free zone around the sample is the usual read-out of agar diffusion tests.

Assay [6] concerns Aspergillus niger. The assay is described as follows: Agar diffusion antimicrobial test, Aspergillus niger. The following applies: Fungi, modified Kirby–Bauer disk diffusion, 10 µg/mL. The assay is classed as cell-based. The procedure: as §1, §2
For assay [7], the system named is carrageenan-induced edema. Description: Carrageenan-induced edema (rat paw test). The settings on record: one hour before carrageenan, male albino rats, eight animals per group, paws excised four hours after drug administration. Format: in vivo. The procedure:
(§3) For the determination of the antiphlogistic potency of the synthesized compounds, two standard tests were realized at a dose level 2.5 and 5 mg/kg body weight of the rats, namely the protection against carrageenan-induced edema according to Winter et al. and the inhibition of plasma PGE2. The latter is known as a good confirming indicator for carrageenan-induced rat paw edema. […] For these compounds, a similar activity profile was realized for the inhibition of plasma PGE2.
(§4) Groups of adult male albino rats (150–180 g), each of eight animals were orally dosed with tested compounds at a dose level of 2.5–5 mg/kg one hour before carrageenan challenge. Foot paw edema was induced by subplantar injection of 0.05 cm^3 of a 1% suspension of carrageenan in saline into the plantar tissue of one hind paw. An equal volume of saline was injected to the other hand paw and served as control. Four hours after drug administration the animals were decapitated, blood was collected, and the paws were rapidly excised. The average weight of edema was examined for the treated as well as the control group and the percentage inhibition of weight of edema was also evaluated. Diclofenac potassium (5 mg/kg) was employed as standard reference against which the tested compounds were compared (Table 2).
On the technique in general: The carrageenan paw model is a standard test of acute inflammation.

Assay [8] concerns plasma PGE2. The assay is described as follows: Inhibition of plasma PGE2 (EIA) in carrageenan-challenged rats. Format: in vivo, rat. The settings on record: rats n = 8, blood four hours after drug administration, PGE2 EIA kit. The procedure:
as §3, §4
Heparinized blood samples were collected from rats (n = 8), plasma was separated by centrifugation at 12,000 g for 2 min at […], immediately frozen, and stored at […] until use. The design correlate EIA prostaglandin E2 (PGE2) kit (Aldrich, Steinheim, Germany) is a competitive immuno assay for the quantitative determination of PGE2 in biological fluids. The kit uses a monoclonal antibody to PGE2 to bind, in a competitive manner, the PGE2 in the sample after a simultaneous incubation at room temperature. The excess reagents were washed away and the substrate was added, after a short incubation time the enzyme reaction was stopped, and the yellow color generated was read on a microplate reader DYNATech, MR 5000 at 405 nm (Dynatech Industries Inc., McLean, VA, USA). The intensity of the bound yellow color is inversely proportional to the concentration of PGE2 in either standard or samples.

With `CC(C)C[C@H](NC(=O)c1cncc(C(=O)N[C@@H](CC(C)C)C(=O)NN)c1)C(=O)NN` [Compound 4, N^2,N^2′-(Pyridine-3,5-dicarbonyl)-di-L-leucyl hydrazide], the “Inhibition Zome, Bacillus subtilis” value in assay [1] was 1.85 cm. In assay [2], the “Inhibition Zome, Bacillus aureus” value was 1.92 cm. Further, the “Inhibition Zome, Staphylococcus aureus” value in assay [3] is 1.80 cm. Moreover, the “Inhibition Zome, Escherichia coli” value in assay [4] was determined as 0.80 cm. Moreover, the “Inhibition Zome, Candida albicans” value in assay [5] was found to be 0.92 cm. For the same compound, the “Inhibition Zome, Aspergillus niger” value in assay [6] amounted to 1.56 cm. Further, the “% Protection against Edema” value in assay [7] (dose 2.5 mg/kg oral) is reported as 93.45 ± 0.074%; in assay [7] (dose 5.0 mg/kg oral), 98.56 ± 0.060%. Further, the “% Inhibition of Plasma PGE2” value is reported as 75.66 ± 0.040% in assay [8] (dose 2.5 mg/kg oral) and 80.01 ± 0.058% in assay [8] (dose 5.0 mg/kg oral).

On to `CC(C)C[C@H](NC(=O)c1cncc(C(=O)N[C@@H](CC(C)C)C(=O)NN2C(=O)c3ccccc3C2=O)c1)C(=O)NN1C(=O)c2ccccc2C1=O` [Compound 7a], for which, in assay [1], the “Inhibition Zome, Bacillus subtilis” value came to 1.55 cm. Also, the “Inhibition Zome, Bacillus aureus” value in assay [2] is reported as 1.84 cm. The “Inhibition Zome, Staphylococcus aureus” value in assay [3] amounted to 1.58 cm. Also, the “Inhibition Zome, Escherichia coli” value in assay [4] was 0.75 cm. The “Inhibition Zome, Candida albicans” value in assay [5] was 1.02 cm. Also, in assay [6], the “Inhibition Zome, Aspergillus niger” value is 1.64 cm. The “% Protection against Edema” value is reported as 97.45 ± 0.054% in assay [7] (dose 2.5 mg/kg oral) and 98.86 ± 0.046% in assay [7] (dose 5.0 mg/kg oral). In addition, the “% Inhibition of Plasma PGE2” value turned out to be 81.30 ± 0.044% in assay [8] (dose 2.5 mg/kg oral) and 82.48 ± 0.052% in assay [8] (dose 5.0 mg/kg oral).

Turning to `COc1ccc(/C(C)=N/NC(=O)[C@H](CC(C)C)NC(=O)c2cncc(C(=O)N[C@@H](CC(C)C)C(=O)N/N=C(\C)c3ccc(OC)cc3)c2)cc1` [Compound 9b], in assay [1], the “Inhibition Zome, Bacillus subtilis” value worked out at 1.60 cm. Besides, in assay [2], the “Inhibition Zome, Bacillus aureus” value turned out to be 1.74 cm. The “Inhibition Zome, Staphylococcus aureus” value in assay [3] was determined as 1.72 cm. Also, in assay [4], the “Inhibition Zome, Escherichia coli” value is on record as 0.75 cm. Also, the “Inhibition Zome, Candida albicans” value in assay [5] stood at 1.00 cm. Besides, the “Inhibition Zome, Aspergillus niger” value in assay [6] stood at 1.88 cm. The “% Protection against Edema” value in assay [7] (dose 2.5 mg/kg oral) was 79.34 ± 0.081%; in assay [7] (dose 5.0 mg/kg oral) it was 92.92 ± 0.090%. Besides, the “% Inhibition of Plasma PGE2” value in assay [8] (dose 2.5 mg/kg oral) came to 57.90 ± 0.040%; in assay [8] (dose 5.0 mg/kg oral), 77.14 ± 0.052%.

On to “2,6-Bis[(N-[4-methyl-1-(1H-benzo[de]isoquinoline-1,3(2H)-dion)-pentan]-3-carboxamido]pyridine [Compound 8]”, for which, in assay [1], the “Inhibition Zome, Bacillus subtilis” value is listed as 1.90 cm. Further, the “Inhibition Zome, Bacillus aureus” value in assay [2] turned out to be 1.94 cm. The “Inhibition Zome, Staphylococcus aureus” value in assay [3] is on record as 1.95 cm. For the same compound, the “Inhibition Zome, Escherichia coli” value in assay [4] is on record as 0.90 cm. Further, the “Inhibition Zome, Candida albicans” value in assay [5] was determined as 0.98 cm. Moreover, the “Inhibition Zome, Aspergillus niger” value in assay [6] turned out to be 2.00 cm. Also, the results for the “% Protection against Edema” value in assay [7] (dose 2.5 mg/kg oral) and in assay [7] (dose 5.0 mg/kg oral) were 78.88 ± 0.090% and 92.00 ± 0.060%, respectively. In addition, the “% Inhibition of Plasma PGE2” value in assay [8] (dose 2.5 mg/kg oral) was found to be 57.57 ± 0.045%; in assay [8] (dose 5.0 mg/kg oral), 76.00 ± 0.035%.

Take `C/C(=N\NC(=O)[C@H](CC(C)C)NC(=O)c1cncc(C(=O)N[C@@H](CC(C)C)C(=O)N/N=C(\C)c2ccc(Cl)cc2)c1)c1ccc(Cl)cc1` [Compound 9a]: in assay [1], the “Inhibition Zome, Bacillus subtilis” value was 1.84 cm. The “Inhibition Zome, Bacillus aureus” value in assay [2] is listed as 1.88 cm. Besides, in assay [3], the “Inhibition Zome, Staphylococcus aureus” value is 1.76 cm. For the same compound, in assay [4], the “Inhibition Zome, Escherichia coli” value worked out at 0.92 cm. For the same compound, the “Inhibition Zome, Candida albicans” value in assay [5] is listed as 1.10 cm. For the same compound, in assay [6], the “Inhibition Zome, Aspergillus niger” value was 2.01 cm. Besides, the “% Protection against Edema” value in assay [7] (dose 2.5 mg/kg oral) amounted to 82.16 ± 0.076%; in assay [7] (dose 5.0 mg/kg oral) it was 93.16 ± 0.064%. The results for the “% Inhibition of Plasma PGE2” value in assay [8] (dose 2.5 mg/kg oral) and in assay [8] (dose 5.0 mg/kg oral) were 58.96 ± 0.024% and 74.58 ± 0.040%, respectively.
